Data set [1] concerns Sarcoma 180 cells. In words: Antitumor action, Sarcoma 180 intraperitoneal in ICR mice, life-span and survivors on 40th day (Test Example 1). The settings on record: 0.33 mg/mouse i.p. three times; for Life-span prolongation ratio (T/C, %): only related to mice found dead. It counts as in vivo. The protocol:
Antitumor action of the compounds in Working Examples
ICR mice (a group consisting of five mice) were inoculated intraperitoneally with 1×10^5 Sarcoma 180 cells per mouse, and then given intraperitoneally 0.33 mg/mouse of a compound dissolved in physiological saline, three times, i.e. 1 hour, 1 day and 2 days after inoculation. Reference compound IV, Va or Vb was given to mice under the same conditions. Shown in Table 1 are the life-span prolongation ratio against the untreated control group and the number of survived mice on the 40th day after the initiation of the test.

The test system of data set [2] is Sarcoma 180 cells. In words: Antitumor action, Sarcoma 180 subcutaneous in ICR mice, intravenous dosing, tumor proliferation inhibition (Test Example 2). It counts as in vivo. As to conditions: 0.3 mg/mouse i.v. 9 times; tumor weight after 21 days. As to the method: (§1) Antitumor action of the compound of Working Example 8
ICR mice (a group consisting of 5 mice) were inoculated subcutaneously with 1×10^6 Sarcoma 180 cells per mouse, and given intravenously 0.03 mg/mouse or 0.3 mg/mouse of the compound of Working Example 8 dissolved in physiological saline 9 times in total, i.e. 8, 9, 10, 13, 14, 15, 16, 17, and 20 days after inoculation. The Reference compound (IV), 0.3 mg/mouse, was given under the same conditions. After 21 days, the tumor tissue was extirpated and the tumor weight was weighed. Shown in Table 2 is tumor proliferation inhibition ratio as compared with the untreated control group.

The test system of data set [3] is mouse mammary carcinoma cells MM46. In words: Antitumor action, MM46 intraperitoneal in C3H mice, life-span and survivors on 40th day (Test Example 3). The format is in vivo. The settings on record: 0.25 mg/mouse once a day for 4 days. The protocol: as §1
C3H mice (a group consisting of 5 mice) were inoculated intraperitoneally with 1×10^4 mouse mammary carcinoma cells MM46 per mouse, and given 0.25 mg/mouse of the compound of Working Example 8 dissolved in physiological saline once a day for 4 consecutive days starting from the second day after the inoculation. The Reference compound (IV) was given under the same conditions. Shown in Table 3 are the life-span prolongation ratio against the untreated control group and the number of survived mice on the 40th day after initiation of the test.

For data set [4], the system named is Platelet aggregation caused by PAF. In words: Inhibition of PAF-induced platelet aggregation in rabbit PRP (Test Example 5). It counts as cell-based. As to conditions: Oryctolagus cuniculus, PAF 1×10^-8 M, read-out: inhibition ratio (%) of PAF-induced platelet aggregation; for inhibition at 30 µM: 3 × 10^-5 M; for inhibition at 3 µM: 3 × 10^-6 M. The protocol: Blood was collected directly from a male rabbit, using a syringe containing 3.15% of citric acid (at a ratio of 1 part to 9 parts of blood) as an anticoagulant, and centrifuged at 800 rpm for 10 minutes at room temperature to obtain platelet rich plasma (PRP). The remaining blood was centrifuged further at 3000 rpm for 10 minutes to obtain platelet poor plasma (PPP) as the supernatant. By dilution of PRP with PPP, the platelet count was adjusted to about 500,000 cells/μl. After 250 μl of the resulting PRP was stirred at 37° C. for 2 minutes, a certain amount of the test compound was added, and the mixture was stirred for further 2 minutes, and then 1×10^-8 M of PAF was added. Platelet aggregation was measured by using a platelet aggregometer (manufactured by Rika Denki Co. in Japan). The aggregation-inhibiting activity of a test compound was determined from the inhibition ratio against maximal transmittance (maximal aggregation ratio) caused by PAF in the control PRP.

The conditions of data set [5]: due to PAF-related structure; cited from earlier work.
For data set [6] the following is noted: unlike PAF; cited from earlier work.
For data set [7], the system named is Sarcoma 180 cells. In words: Antitumor action, Sarcoma 180 intraperitoneal in ICR mice, life-span and survivors on 60th day (Test Example 6). It counts as in vivo. The settings on record: Sarcoma-180, ip, 1440 h, 0.33 mg/mouse i.p. three times. The protocol:
(§2) Antitumor action of the compounds of Working Examples
ICR mice (a group consisting of five mice) were inoculated intraperitoneally with 1×10^5 Sarcoma 180 cells per mouse, and then given intraperitoneally 0.33 mg/mouse of a compound dissolved in physiological saline, three times, i.e. 1 hour, 1 day and 2 days after inoculation. Shown in Table 6 are the life-span prolongation ratio against the untreated control group and the number of survived mice on the 60th day after the initiation of the test.

The test system of data set [8] is Sarcoma 180 cells. In words: Antitumor action, Sarcoma 180 subcutaneous in ICR mice, intravenous dosing, tumor proliferation inhibition (Test Example 7). It counts as in vivo. As to conditions: 0.3 mg/mouse i.v. 9 times; tumor weight after 21 days. The protocol: as §2
ICR mice (a group consisting of 5 mice) were inoculated subcutaneously with 1×10^5 Sarcoma 180 cells per mouse, and given intravenously 0.3 mg/mouse of a compound of a Working Example dissolved in physiological saline 9 times in total, i.e. 8, 9, 10, 13, 14, 15, 16, 17, and 20 days after inoculation. After 21 days, the tumor tissue was extirpated and the tumor weight was weighed. Shown in Table 7 is tumor proliferation inhibition ratio as compared with the untreated control group.

Data set [9] has as its system Sarcoma 180 cells. In words: Antitumor action, Sarcoma 180 subcutaneous in ICR mice, oral dosing (Test Example 9). It counts as in vivo. As to conditions: 0.3 mg/mouse orally eight times, after 20 days. As to the method:
Antitumor action of the compounds of Working Examples 8 and 24
ICR mice (a group consisting of 5 mice) were inoculated subcutaneously at the dorsolateral area with […] 1×10^6 Sarcoma 180 cells per mouse, and given orally 0.3 mg/mouse of the compound of Example 8 or the compound of Example 24 eight times in total, i.e. 8th, 9th, 10th, 13th, 14th, 15th, 16th, and 17th day after inoculation. After 20 days the tumor tissue was extirpated and the tumor weight was weighed. Shown in Table 9 is tumor proliferation inhibition ratio against the untreated control.

The subject of a further data set is macrophages. As to conditions: even at about 1000 times concentration of that of PAF; cited from earlier work.

As to `CCCCCCCCCCCCCCCCCCOCC(COP(=O)([O-])OCC[N+](C)(C)C)OC` (centres unmarked) [Compound IV, reference compound], in the data set on Sarcoma 180 cells [1], the “No. of survivors/No. of mice tested” value is reported as 0/5 and the “Life-span prolongation ratio (T/C, %)” value turned out to be 162%. Also, the “Inhibition ratio (1-T/C) (%)” value with Sarcoma 180 cells [2] is 58%. The “No. of survivors/No. of mice tested” value in data set [3] is listed as 0/5. Moreover, the “Life-span prolongation ratio (T/C, %)” value in [3] (survivors not included) came to 155%. For the same compound, in [4], the inhibition at 30 µM is 0% and the inhibition at 3 µM worked out at 0%. Besides, in data set [4] (3 × 10^-7 M), the inhibition at 0.3 µM stood at 0%. Besides, in [5], the PAF-like actions entry is “serotonin liberation, bronchial constriction, platelet aggregation, and blood pressure lowering”. Also, the antitumor actions result in data set [6] was “antitumor actions”.

For `COC(COCCCCCCCCCCCCC1CCCCC1)COCCOCC[N+](C)(C)C` (centres unmarked) [Example 24, 2-[2-[3-(12-Cyclohexyl)dodecyloxy-2-methoxypropyloxy]ethoxy]ethyltrimethylammonium chloride], in the data set with Sarcoma 180 cells [1], the “No. of survivors/No. of mice tested” value is 3/5 and the “Life-span prolongation ratio (T/C, %)” value is given as 262%. Also, in data set [4], the inhibition at 30 µM was found to be 100% and the inhibition at 3 µM is 63%. Besides, in the data set on Sarcoma 180 cells [7] (60th day, read-out: No. of survivors/No. of mice tested (converted)), the responders at 0.33 mg was 0%. Also, the response vs control in vivo at 0.33 mg in the data set on Sarcoma 180 cells [7] (survivors on day 60 not included, read-out: Life-span prolongation ratio (T/C)) stood at 302%. Besides, the “Inhibition ratio (1-T/C) (%)” value in the data set with Sarcoma 180 cells [8] was determined as 78%. In addition, the “Weight of tumor” value in the data set on Sarcoma 180 cells [9] was determined as 0.35 ± 0.15 g. Besides, the “Inhibition ratio (%)” value with Sarcoma 180 cells [9] (against untreated control) amounted to 75%.

Consider lysolecithin, for which the macrophage activation result in the data set on macrophages is “cannot activate macrophages”.

(Values after patent US4889953A, “Glycerol derivatives, their production and use” (Takeda Chemical Industries, Ltd., priority 1986, dated 1989).)
